The test system of assay [1] is DNFB-induced ear swelling. Put plainly: ear swelling assay, delayed-type contact sensitivity to 2,4-dinitro-1-fluorobenzene (DNFB). It counts as in vivo, inbred mice (C57BL/6J; (C57BL/6J×DBA/2J) F1). An excerpt: In further proof of the activity of the purified material from Example 3 as compared with niridazole per se, there was employed the ear swelling assay of Phanuphak et al. (1), which measures delayed-type contact sensitivity of inbred mice to 2,4-dinitro-1-fluorobenzene (DNFB). The assay was done according to the following protocol: on Day 1, groups of mice, matched for sex and weight, had their abdomens shaved and received varying doses of niridazole or NIF, the purified product of Example 2. The animals were sensitized on Day 3 with 20 μl of 0.5% (v/v) DNFB in acetone: olive oil (4:1, v/v) applied to the shaved abdomen. The sensitization procedure was repeated on Day 4. On Day 8, mice were lightly anesthetized with ether and the right ear thickness measured (10^-2 ×mm) by a modified dial thickness gauge. The right ear was then challenged with 10 μl of 0.5% DNFB solution. Twenty-four hours later, the mice were again anesthetized and the thickness of the right ear was measured to determine the immune response (swelling to the DNFB challenge).

Assay [2] concerns granuloma formation around S. mansoni eggs. Put plainly: granuloma formation around S. mansoni eggs injected intravenously into the pulmonary microvasculature. It counts as in vivo, CF1 Swiss albino female mice. To be noted: niridazole single oral dose 1 mg/kg, Day -1, p<0.005. As for the experimental part:
Groups of 5 weanling CF1 Swiss albino female mice (18-22 g body weight) obtained from Carworth Farms, Inc., New City, New York were treated by intravenous injection with different doses of urine fractions at varying time intervals before egg injection. Untreated mice and niridazole treated animals (1 mg/kg body weight given orally on the day before egg injection) were used as controls. […] Fifty granulomas containing eggs in their centers were measured from each experimental group and the significance of the difference was evaluated by the Student's t test.

Assay [3] relates to inflammation related to delayed hypersensitivity. To be noted: tests on experimental animals; cited from earlier work.
In assay [4] the test system is delayed hypersensitivity-type reactions. To be noted: cited from earlier work.

Consider `NC(=S)N1CCNC1=O` [NIF, 1-(thiocarbamoyl)-2-imidazolidinone], for which, in assay [1] (10^-8 -10^-10 g/kg pure (NIF) urine extracts), the “suppression of ear swelling” value stood at 50%. Further, the SUPPRESSION in assay [1] (Exp. II, F1 mice, 1.2 × 10^-8 g/kg ip) is recorded as 48 ± 7%; in assay [1] (Exp. II, F1 mice, 1.2 × 10^-10 g/kg ip), 46 ± 4%; in assay [1] (Exp. III, B6 mice, 1.6 × 10^-8 g/kg ip), 52 ± 14%; in assay [1] (Exp. III, B6 mice, 1.6 × 10^-8 g/kg iv) it was 25 ± 21%; in assay [1] (Exp. III, B6 mice, 1.6 × 10^-10 g/kg ip), 69 ± 13%; in assay [1] (Exp. III, B6 mice, 1.6 × 10^-10 g/kg iv) it was 45 ± 12%. Further, the SUPPRESSION in assay [1] (Exp. III, B6 mice, 1.6 × 10^-11 g/kg iv) was 65 ± 9%; in assay [1] (Exp. III, B6 mice, 1.6 × 10^-12 g/kg iv) it was 88 ± 9%. Besides, the “EAR SWELLING (± SEM)” value is 16.0 ± 2.2 10^-2 × mm in assay [1] (Exp. II, F1 mice, 1.2 × 10^-8 g/kg ip, n=5, control 30.9); 16.8 ± 1.2 10^-2 × mm in assay [1] (Exp. II, F1 mice, 1.2 × 10^-10 g/kg ip, n=5, control 30.9); 17.5 ± 5.0 10^-2 × mm in assay [1] (Exp. III, B6 mice, 1.6 × 10^-8 g/kg ip, n=4, control 36.2); 27.2 ± 7.7 10^-2 × mm in assay [1] (Exp. III, B6 mice, 1.6 × 10^-8 g/kg iv, n=4, control 36.2); 11.4 ± 4.8 10^-2 × mm in assay [1] (Exp. III, B6 mice, 1.6 × 10^-10 g/kg ip, n=4, control 36.2); 20.0 ± 4.3 10^-2 × mm in assay [1] (Exp. III, B6 mice, 1.6 × 10^-10 g/kg iv, n=4, control 36.2). Moreover, the “EAR SWELLING (± SEM)” value in assay [1] (Exp. III, B6 mice, 1.6 × 10^-11 g/kg iv, n=4, control 36.2) is listed as 12.8 ± 3.2 10^-2 × mm; in assay [1] (Exp. III, B6 mice, 1.6 × 10^-12 g/kg iv, n=4, control 36.2), 4.4 ± 3.2 10^-2 × mm. In assay [1] (experiment III, extract dose 10^-12 g/kg), the “ear swelling, in words” value is listed as “all but ablated”. Moreover, in assay [1] (extract 10^-8 g/kg i.v.), the “suppression at higher doses, in words” value is recorded as “less suppression”.

`O=C1NCCN1c1ncc([N+](=O)[O-])s1` [niridazole, 1-(5-nitro-2-thiazolyl)-2-imidazolidinone, reference compound]: the mean granuloma area in assay [2] (Table III experiment) is recorded as 11 ± 2.6 μ^2 × 10^3; in assay [2] (Table IV experiment), 8 ± 2.6 μ^2 × 10^3. Besides, the “effect on inflammation related to delayed hypersensitivity, in words” value in assay [3] is listed as “suppression of inflammation related to delayed hypersensitivity including retardation of allograft rejection”. Also, the “suppression of ear swelling, in words” value in assay [1] (10^-3 to 10^-4 g/kg niridazole intraperitoneally) is “Significant suppression of ear swelling”. Besides, the SUPPRESSION is recorded as 37 ± 3% in assay [1] (Exp. I, F1 mice, niridazole dose 10^-2, ip) and 66 ± 4% in assay [1] (Exp. I, F1 mice, niridazole dose 10^-3, ip). Further, the “EAR SWELLING (± SEM)” value is given as 17.0 ± 0.9 10^-2 × mm in assay [1] (Exp. I, F1 mice, niridazole dose 10^-2, ip, n=5, control 26.9) and 9.1 ± 1.2 10^-2 × mm in assay [1] (Exp. I, F1 mice, niridazole dose 10^-3, ip, n=5, control 26.9). Further, in assay [1] (niridazole 10 mg/kg), the “suppression at higher doses, in words” value is reported as “less suppression”. Besides, the “suppression of delayed hypersensitivity-type reactions, in words” value in assay [4] (human studies by Webster et al) is on record as “corroborated the suppression of delayed hypersensitivity-type reactions”. In addition, the “effect on inflammations, in words” value in assay [4] (patients undergoing prolonged treatment, Mahmoud et al) is “suppressed inflammations”.

(Values after patent US4168316A, “Immunosuppressive-1-(thiocarbamoyl)-2-imidazolidinone” (Northwestern University, priority 1978, dated 1979).)
